Active and inactive are the calls of the source.
How the values were obtained:
[1] = molecular target: T1, Sentrin-specific protease 6 (Homo sapiens, UniProt Q9GZR1); assay type: functional;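 further: Luminescence-based dose-response confirmatory assay of SENP6 inhibition, following up an ultra-high-throughput screen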
T1 sequence (Q9GZR1 whole entry): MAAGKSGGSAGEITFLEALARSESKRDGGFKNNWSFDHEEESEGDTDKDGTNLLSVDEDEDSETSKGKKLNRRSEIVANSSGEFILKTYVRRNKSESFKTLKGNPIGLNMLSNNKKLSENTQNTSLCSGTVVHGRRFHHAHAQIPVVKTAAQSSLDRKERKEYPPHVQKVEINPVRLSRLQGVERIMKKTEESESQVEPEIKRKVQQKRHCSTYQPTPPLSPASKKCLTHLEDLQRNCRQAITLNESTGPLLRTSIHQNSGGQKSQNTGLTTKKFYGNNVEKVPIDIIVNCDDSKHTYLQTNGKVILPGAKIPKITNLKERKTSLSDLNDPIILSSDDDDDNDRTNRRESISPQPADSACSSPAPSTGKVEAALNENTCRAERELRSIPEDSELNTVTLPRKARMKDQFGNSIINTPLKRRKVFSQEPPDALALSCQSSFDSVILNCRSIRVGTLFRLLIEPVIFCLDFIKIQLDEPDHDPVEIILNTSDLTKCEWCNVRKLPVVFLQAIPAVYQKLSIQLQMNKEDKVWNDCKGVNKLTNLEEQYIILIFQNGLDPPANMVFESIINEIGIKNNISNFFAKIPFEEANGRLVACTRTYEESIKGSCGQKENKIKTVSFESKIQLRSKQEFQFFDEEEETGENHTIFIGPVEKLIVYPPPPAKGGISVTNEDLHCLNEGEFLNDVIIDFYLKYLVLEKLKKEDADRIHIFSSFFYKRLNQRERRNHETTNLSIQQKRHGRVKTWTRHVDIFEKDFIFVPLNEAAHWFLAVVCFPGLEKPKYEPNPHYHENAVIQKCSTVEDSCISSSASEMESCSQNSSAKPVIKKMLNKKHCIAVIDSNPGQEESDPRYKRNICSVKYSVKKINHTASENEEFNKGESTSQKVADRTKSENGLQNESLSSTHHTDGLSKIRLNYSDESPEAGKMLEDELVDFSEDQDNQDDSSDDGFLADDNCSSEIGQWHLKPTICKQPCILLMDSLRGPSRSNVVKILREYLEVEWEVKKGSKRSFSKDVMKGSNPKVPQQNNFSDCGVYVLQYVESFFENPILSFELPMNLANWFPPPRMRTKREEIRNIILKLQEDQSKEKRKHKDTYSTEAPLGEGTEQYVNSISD

Caspase-8 = Caspase-8 (Homo sapiens, UniProt Q14790); assay: caspase-8 inhibition counter-screen, dose response, selectivity assay for caspase-6 inhibitor project, biochemical, Z-IETD-R110 fluorescence, cherry-picked samples (AID 743294)
Caspase-7 = Caspase-7 (Homo sapiens, UniProt P55210); assay: human caspase-7 inhibitors, dose response, selectivity assay for caspase-6 inhibitor project, biochemical, DEVD-R110 fluorescence, cherry-pick (AID 743295)
[2] = molecular target: T2, Histone-lysine N-methyltransferase NSD2 (Homo sapiens, UniProt O96028); assay type: biochemical
T2 sequence (O96028 whole entry): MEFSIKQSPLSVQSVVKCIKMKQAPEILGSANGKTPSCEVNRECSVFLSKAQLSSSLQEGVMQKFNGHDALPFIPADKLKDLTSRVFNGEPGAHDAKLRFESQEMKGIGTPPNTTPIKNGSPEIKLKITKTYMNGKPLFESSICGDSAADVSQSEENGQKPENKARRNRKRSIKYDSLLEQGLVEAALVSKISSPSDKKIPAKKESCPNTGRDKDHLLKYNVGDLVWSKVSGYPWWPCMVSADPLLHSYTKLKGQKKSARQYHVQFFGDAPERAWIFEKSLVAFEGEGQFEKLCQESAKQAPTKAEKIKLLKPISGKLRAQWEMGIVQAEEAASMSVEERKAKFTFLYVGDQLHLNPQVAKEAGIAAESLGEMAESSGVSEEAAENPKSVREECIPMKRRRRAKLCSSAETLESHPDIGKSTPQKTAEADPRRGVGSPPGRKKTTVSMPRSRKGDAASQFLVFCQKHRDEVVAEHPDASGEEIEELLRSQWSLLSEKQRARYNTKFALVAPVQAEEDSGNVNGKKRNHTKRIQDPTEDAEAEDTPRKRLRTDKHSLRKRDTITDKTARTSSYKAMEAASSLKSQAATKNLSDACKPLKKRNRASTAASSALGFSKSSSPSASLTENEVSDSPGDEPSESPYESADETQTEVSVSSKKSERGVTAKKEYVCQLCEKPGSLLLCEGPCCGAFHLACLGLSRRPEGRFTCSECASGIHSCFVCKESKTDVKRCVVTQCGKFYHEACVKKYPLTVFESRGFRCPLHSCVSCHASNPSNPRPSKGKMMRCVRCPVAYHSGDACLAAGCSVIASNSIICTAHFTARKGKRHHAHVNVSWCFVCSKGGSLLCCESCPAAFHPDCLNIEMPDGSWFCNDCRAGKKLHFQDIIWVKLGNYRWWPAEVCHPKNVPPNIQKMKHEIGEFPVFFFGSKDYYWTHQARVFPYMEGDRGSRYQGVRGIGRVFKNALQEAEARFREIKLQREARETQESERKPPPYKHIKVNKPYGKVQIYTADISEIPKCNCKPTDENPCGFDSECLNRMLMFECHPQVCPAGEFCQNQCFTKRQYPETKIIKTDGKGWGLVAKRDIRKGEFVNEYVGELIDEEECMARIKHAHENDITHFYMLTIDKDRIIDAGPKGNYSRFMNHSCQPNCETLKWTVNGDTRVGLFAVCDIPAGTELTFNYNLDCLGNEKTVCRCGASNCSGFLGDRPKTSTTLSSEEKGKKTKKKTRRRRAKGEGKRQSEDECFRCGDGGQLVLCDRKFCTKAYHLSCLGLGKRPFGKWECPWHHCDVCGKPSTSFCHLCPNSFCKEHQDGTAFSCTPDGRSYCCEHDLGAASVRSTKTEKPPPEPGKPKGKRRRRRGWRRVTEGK

[3] = molecular target: T3, Sentrin-specific protease 8 (Homo sapiens, UniProt Q96LD8); assay type: functional;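 further: luminescence read-out of SENP8 inhibition, dose-response confirmation following an ultra-high-throughput screen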
T3 sequence (Q96LD8 whole entry): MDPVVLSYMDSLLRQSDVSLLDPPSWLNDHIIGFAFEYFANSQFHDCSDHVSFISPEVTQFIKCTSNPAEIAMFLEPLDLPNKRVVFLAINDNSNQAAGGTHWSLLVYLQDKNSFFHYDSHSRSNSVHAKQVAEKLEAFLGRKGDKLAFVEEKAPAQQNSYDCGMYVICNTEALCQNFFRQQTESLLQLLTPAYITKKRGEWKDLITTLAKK

INS1 = assay: beta cell apoptosis inhibitors, cytokine rescue, dose response, luminescence, retest (AID 449756); assay type: functional, cell-based; settings: Rattus norvegicus;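 further: cell death triggered by IL-1 beta plus TNF-alpha plus IFN-gamma mixture; protective hits raise ATP signal compared with cytokine alone wells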
cells = assay type: functional, cell-based
BJ = assay: cytotoxicity toward BJ-TERT fibroblasts, dose response, cell-based, RAS-independent, luminescence (AID 1933); assay type: functional; settings: Homo sapiens
Nonstructural protein 1 = Nonstructural protein 1 (Influenza A virus, UniProt Q194T2); assay type: functional, Influenza A virus (A/California/07/2009(H1N1))
Sequence of Nonstructural protein 1 (Q194T2 whole entry): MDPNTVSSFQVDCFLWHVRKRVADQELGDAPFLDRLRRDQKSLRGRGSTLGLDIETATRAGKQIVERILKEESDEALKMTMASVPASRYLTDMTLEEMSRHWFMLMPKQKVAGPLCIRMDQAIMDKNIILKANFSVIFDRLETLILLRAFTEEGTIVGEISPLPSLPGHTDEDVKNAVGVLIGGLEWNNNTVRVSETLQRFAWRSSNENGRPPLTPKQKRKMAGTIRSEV

Sequence of Caspase-7 (P55210 24-198 limits assumed): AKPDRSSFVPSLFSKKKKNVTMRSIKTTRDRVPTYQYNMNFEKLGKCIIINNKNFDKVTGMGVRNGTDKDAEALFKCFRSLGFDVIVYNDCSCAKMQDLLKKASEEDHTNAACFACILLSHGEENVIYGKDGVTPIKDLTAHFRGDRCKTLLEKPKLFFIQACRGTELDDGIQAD
Sequence of Caspase-7 (P55210 207-303 limits assumed): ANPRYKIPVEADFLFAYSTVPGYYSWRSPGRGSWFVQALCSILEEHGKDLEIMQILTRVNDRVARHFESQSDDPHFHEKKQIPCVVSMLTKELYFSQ
Sequence of Caspase-8 (Q14790 217-374 limits assumed): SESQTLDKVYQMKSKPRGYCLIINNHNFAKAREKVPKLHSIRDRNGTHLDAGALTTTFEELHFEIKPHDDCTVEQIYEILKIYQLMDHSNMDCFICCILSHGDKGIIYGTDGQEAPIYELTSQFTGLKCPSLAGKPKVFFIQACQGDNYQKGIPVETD
Sequence of Caspase-8 (Q14790 385-479 limits assumed): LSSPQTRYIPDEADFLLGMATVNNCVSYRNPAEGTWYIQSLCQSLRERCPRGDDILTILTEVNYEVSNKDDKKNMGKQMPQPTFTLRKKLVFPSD

CN(CC(=O)Nc1ccccc1Cl)C(=O)COC(=O)c1ccc([N+](=O)[O-])s1
active: IC50 [1] 4.72 µM | AC50 (Caspase-8) 23.8 µM | AC50 (Caspase-7) 20.6 µM | AC50 [2] 8.27 µM | IC50 [3] 3.95 µM

CCCCC(=O)NC(c1ccc(N(C)C)cc1)c1ccc2cccnc2c1O (centres undefined)
active: AC50 (INS1) 0.626 µM | EC50 (cells) 3.94 µM | EC50 (BJ) 1.05 µM | IC50 (Nonstructural protein 1) 24.9 µM

From ChEMBL document CHEMBL1201862, “PubChem BioAssay data set” (2004)
